Measurements as given in US12077503B2, “Substituted cyclic amides and their use as herbicides” (FMC CORPORATION, priority 2015, dated 2024).

Assays:
Type in all cases: in vivo
[1] = system: giant foxtail (Setaria faberi); assay: Test G Pre-Emergence Protocol; conditions: Setaria faberi, pre-emergence, 312 h, evaluated after 13 days; for pest or weed control at 15.625 g/ha: 15.625 g ai/ha; for pest or weed control at 15.625 g/ha / pest or weed control at 250 g/ha: read-out: Foxtail, Giant damage rating (100=total damage to plant; 0=no damage to plant); for pest or weed control at 62.5 g/ha: 62.5 g ai/ha, 100=total damage to plant, 0=no damage to plant, read-out: plant damage rating, Foxtail, Giant; for pest or weed control at 250 g/ha: 250 g ai/ha
Summary of the method: (§1)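 Under a 24/16° C day/night regime with 14 h light and 65% humidity, sown pots were sprayed after one day with compound (15.625, 62.5 or 250 g/ha; 50:50 acetone/water, 0.5% Tween 20). Damage was assessed visually 13 days later, 0 to 100.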

[2] = system: redroot pigweed (Amaranthus retroflexus); assay: Test G Pre-Emergence Protocol; conditions: Amaranthus retroflexus, pre-emergence, 312 h, evaluated after 13 days; for pest or weed control at 15.625 g/ha: 15.625 g ai/ha; for pest or weed control at 15.625 g/ha / pest or weed control at 250 g/ha: read-out: Pigweed, Redroot damage rating (100=total damage to plant; 0=no damage to plant); for pest or weed control at 62.5 g/ha: 62.5 g ai/ha, 100=total damage to plant, 0=no damage to plant, read-out: plant damage rating, Pigweed, Redroot; for pest or weed control at 250 g/ha: 250 g ai/ha
Summary of the method: as §1

corn (Zea mays) [3] = assay: Test G Pre-Emergence Protocol; conditions: Zea mays, pre-emergence, 312 h, evaluated after 13 days; for plant injury at 15.625 g/ha: 15.625 g ai/ha; for plant injury at 15.625 g/ha / plant injury at 250 g/ha: read-out: Corn damage rating (100=total damage to plant; 0=no damage to plant); for plant injury at 62.5 g/ha: 62.5 g ai/ha, 100=total damage to plant, 0=no damage to plant, read-out: plant damage rating, Corn; for plant injury at 250 g/ha: 250 g ai/ha
Summary of the method: as §1

[4] = system: barnyardgrass (Echinochloa crus-galli); assay: Test G Pre-Emergence Protocol; conditions: Echinochloa crus-galli, pre-emergence, 312 h, evaluated after 13 days; for pest or weed control at 15.625 g/ha: 15.625 g ai/ha, read-out: Barnyard grass damage rating (100=total damage to plant; 0=no damage to plant); for pest or weed control at 62.5 g/ha: 62.5 g ai/ha, 100=total damage to plant, 0=no damage to plant, read-out: plant damage rating, Barnyardgrass; for pest or weed control at 250 g/ha: 250 g ai/ha, read-out: Barnyardgrass damage rating (100=total damage to plant; 0=no damage to plant)
Summary of the method: as §1

[5] = system: velvetleaf (Abutilon theophrasti); assay: Test G Pre-Emergence Protocol; conditions: Abutilon theophrasti, pre-emergence, 312 h, evaluated after 13 days; for pest or weed control at 15.625 g/ha: 15.625 g ai/ha; for pest or weed control at 15.625 g/ha / pest or weed control at 250 g/ha: read-out: Velvetleaf damage rating (100=total damage to plant; 0=no damage to plant); for pest or weed control at 62.5 g/ha: 62.5 g ai/ha, 100=total damage to plant, 0=no damage to plant, read-out: plant damage rating, Velvetleaf; for pest or weed control at 250 g/ha: 250 g ai/ha
Summary of the method: as §1

[6] = system: ivy-leaved morning glory (Ipomoea hederacea); assay: Test G Pre-Emergence Protocol; conditions: Ipomoea, pre-emergence, 312 h, evaluated after 13 days; for pest or weed control at 15.625 g/ha: 15.625 g ai/ha, read-out: Morning-glory, Ivy-leaved damage rating (100=total damage to plant; 0=no damage to plant); for pest or weed control at 62.5 g/ha: 62.5 g ai/ha, 100=total damage to plant, 0=no damage to plant, read-out: plant damage rating, Morningglory, Ivy-leaved; for pest or weed control at 250 g/ha: 250 g ai/ha, read-out: Morningglory, Ivy-leaved damage rating (100=total damage to plant; 0=no damage to plant)
Summary of the method: as §1

[7] = system: giant foxtail (Setaria faberi); assay: Test G Post-Emergence Protocol; conditions: Setaria faberi, post-emergence, 312 h; for pest or weed control at 15.625 g/ha: 15.625 g ai/ha, evaluated after 13 days (100=total damage to plant; 0=no damage to plant), read-out: Foxtail, Giant damage rating; for pest or weed control at 62.5 g/ha: 62.5 g ai/ha, read-out: Foxtail, Giant damage rating (100=total damage to plant; 0=no damage to plant); for pest or weed control at 62.5 g/ha / pest or weed control at 250 g/ha: evaluated after 13 days; for pest or weed control at 250 g/ha: 250 g ai/ha, read-out: damage to plant, Foxtail, Giant (100=total damage to plant; 0=no damage to plant)
Summary of the method: (§2)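 Values are percent visual injury at 13 days after treatment (0 none, 100 total). Treatment was a post-emergence spray at 15.625, 62.5 or 250 g/ha on 8-day-old pot plants kept at 24/16 °C.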

[8] = system: redroot pigweed (Amaranthus retroflexus); assay: Test G Post-Emergence Protocol; conditions: Amaranthus retroflexus, post-emergence, 312 h; for pest or weed control at 15.625 g/ha: 15.625 g ai/ha, evaluated after 13 days (100=total damage to plant; 0=no damage to plant), read-out: Pigweed, Redroot damage rating; for pest or weed control at 62.5 g/ha: 62.5 g ai/ha, read-out: Pigweed, Redroot damage rating (100=total damage to plant; 0=no damage to plant); for pest or weed control at 62.5 g/ha / pest or weed control at 250 g/ha: evaluated after 13 days; for pest or weed control at 250 g/ha: 250 g ai/ha, read-out: damage to plant, Pigweed, Redroot (100=total damage to plant; 0=no damage to plant)
Summary of the method: as §2

corn (Zea mays) [9] = assay: Test G Post-Emergence Protocol; conditions: Zea mays, post-emergence, 312 h; for plant injury at 15.625 g/ha: 15.625 g ai/ha, evaluated after 13 days (100=total damage to plant; 0=no damage to plant), read-out: Corn damage rating; for plant injury at 62.5 g/ha: 62.5 g ai/ha, read-out: Corn damage rating (100=total damage to plant; 0=no damage to plant); for plant injury at 62.5 g/ha / plant injury at 250 g/ha: evaluated after 13 days; for plant injury at 250 g/ha: 250 g ai/ha, read-out: damage to plant, Corn (100=total damage to plant; 0=no damage to plant)
Summary of the method: as §2

[10] = system: barnyardgrass (Echinochloa crus-galli); assay: Test G Post-Emergence Protocol; conditions: Echinochloa crus-galli, post-emergence, 312 h; for pest or weed control at 15.625 g/ha: 15.625 g ai/ha, evaluated after 13 days (100=total damage to plant; 0=no damage to plant), read-out: Barnyardgrass damage rating; for pest or weed control at 62.5 g/ha: 62.5 g ai/ha, read-out: Barnyardgrass damage rating (100=total damage to plant; 0=no damage to plant); for pest or weed control at 62.5 g/ha / pest or weed control at 250 g/ha: evaluated after 13 days; for pest or weed control at 250 g/ha: 250 g ai/ha, read-out: damage to plant, Barnyardgrass (100=total damage to plant; 0=no damage to plant)
Summary of the method: as §2

[11] = system: velvetleaf (Abutilon theophrasti); assay: Test G Post-Emergence Protocol; conditions: Abutilon theophrasti, post-emergence, 312 h; for pest or weed control at 15.625 g/ha: 15.625 g ai/ha, evaluated after 13 days (100=total damage to plant; 0=no damage to plant), read-out: Velvetleaf damage rating; for pest or weed control at 62.5 g/ha: 62.5 g ai/ha, read-out: Velvetleaf damage rating (100=total damage to plant; 0=no damage to plant); for pest or weed control at 62.5 g/ha / pest or weed control at 250 g/ha: evaluated after 13 days; for pest or weed control at 250 g/ha: 250 g ai/ha, read-out: damage to plant, Velvetleaf (100=total damage to plant; 0=no damage to plant)
Summary of the method: as §2

[12] = system: ivy-leaved morning glory (Ipomoea hederacea); assay: Test G Post-Emergence Protocol; conditions: Ipomoea, post-emergence, 312 h; for pest or weed control at 15.625 g/ha: 15.625 g ai/ha, evaluated after 13 days (100=total damage to plant; 0=no damage to plant), read-out: Morningglory, Ivy-leaved damage rating; for pest or weed control at 62.5 g/ha: 62.5 g ai/ha, read-out: Morningglory, Ivy-leaved damage rating (100=total damage to plant; 0=no damage to plant); for pest or weed control at 62.5 g/ha / pest or weed control at 250 g/ha: evaluated after 13 days; for pest or weed control at 250 g/ha: 250 g ai/ha, read-out: damage to plant, Morningglory, Ivy-leaved (100=total damage to plant; 0=no damage to plant)
Summary of the method: as §2

Structure (SMILES) | pest or weed control at 15.625 g/ha [1] | pest or weed control at 62.5 g/ha [1] | pest or weed control at 250 g/ha [1] | pest or weed control at 15.625 g/ha [2] | pest or weed control at 62.5 g/ha [2] | pest or weed control at 250 g/ha [2] | plant injury at 15.625 g/ha (corn (Zea mays) [3]) | plant injury at 62.5 g/ha (corn (Zea mays) [3]) | plant injury at 250 g/ha (corn (Zea mays) [3]) | pest or weed control at 15.625 g/ha [4] | pest or weed control at 62.5 g/ha [4] | pest or weed control at 250 g/ha [4] | pest or weed control at 15.625 g/ha [5] | pest or weed control at 62.5 g/ha [5] | pest or weed control at 250 g/ha [5] | pest or weed control at 15.625 g/ha [6] | pest or weed control at 62.5 g/ha [6] | pest or weed control at 250 g/ha [6] | pest or weed control at 15.625 g/ha [7] | pest or weed control at 62.5 g/ha [7] | also measured
C=CCc1ccc(Cl)cc1NC(=O)[C@H]1C(=O)N(C)C[C@@H]1c1ccc(C(F)(F)F)cc1 (racemic) [Compound 1441] | 0% | 0% | 0% | 0% | 0% | 0% | 0% | 0% | 0% | 0% | 0% | 0% | 0% | 0% | 0% | 0% | 0% | 0% | 0% | 0% | pest or weed control at 250 g/ha [7]: 20%; pest or weed control at 15.625 g/ha [8]: 0%; pest or weed control at 62.5 g/ha [8]: 0%; pest or weed control at 250 g/ha [8]: 0%; plant injury at 15.625 g/ha (corn (Zea mays) [9]): 0%; plant injury at 62.5 g/ha (corn (Zea mays) [9]): 0%; plant injury at 250 g/ha (corn (Zea mays) [9]): 20%; pest or weed control at 15.625 g/ha [10]: 0%; pest or weed control at 62.5 g/ha [10]: 0%; pest or weed control at 250 g/ha [10]: 0%; pest or weed control at 15.625 g/ha [11]: 0%; pest or weed control at 62.5 g/ha [11]: 0%; pest or weed control at 250 g/ha [11]: 0%; pest or weed control at 15.625 g/ha [12]: 0%; pest or weed control at 62.5 g/ha [12]: 0%; pest or weed control at 250 g/ha [12]: 0%
COc1cccc(NC(=O)[C@H]2C(=O)N(C)C[C@@H]2c2ccc(C(F)(F)F)cc2)c1C (racemic) [Compound 1446] | 0% | 0% | 40% | 0% | 0% | 0% | 0% | 0% | 0% | 0% | 0% | 0% | 0% | 0% | 0% | 0% | 0% | 0% | 0% | 0% | pest or weed control at 250 g/ha [7]: 0%; pest or weed control at 15.625 g/ha [8]: 0%; pest or weed control at 62.5 g/ha [8]: 0%; pest or weed control at 250 g/ha [8]: 0%; plant injury at 15.625 g/ha (corn (Zea mays) [9]): 0%; plant injury at 62.5 g/ha (corn (Zea mays) [9]): 0%; plant injury at 250 g/ha (corn (Zea mays) [9]): 0%; pest or weed control at 15.625 g/ha [10]: 0%; pest or weed control at 62.5 g/ha [10]: 0%; pest or weed control at 250 g/ha [10]: 0%; pest or weed control at 15.625 g/ha [11]: 0%; pest or weed control at 62.5 g/ha [11]: 0%; pest or weed control at 250 g/ha [11]: 0%; pest or weed control at 15.625 g/ha [12]: 0%; pest or weed control at 62.5 g/ha [12]: 0%; pest or weed control at 250 g/ha [12]: 0%
COc1c(Cl)cccc1NC(=O)[C@H]1C(=O)N(C)C[C@@H]1c1ccc(C(F)(F)F)cc1 (racemic) [Compound 1447] | 50% | 50% | 60% | 0% | 0% | 0% | 0% | 0% | 20% | 0% | 0% | 10% | 0% | 0% | 0% | 0% | 0% | 0% | 10% | 20% | pest or weed control at 250 g/ha [7]: 50%; pest or weed control at 15.625 g/ha [8]: 0%; pest or weed control at 62.5 g/ha [8]: 0%; pest or weed control at 250 g/ha [8]: 0%; plant injury at 15.625 g/ha (corn (Zea mays) [9]): 0%; plant injury at 62.5 g/ha (corn (Zea mays) [9]): 10%; plant injury at 250 g/ha (corn (Zea mays) [9]): 10%; pest or weed control at 15.625 g/ha [10]: 0%; pest or weed control at 62.5 g/ha [10]: 0%; pest or weed control at 250 g/ha [10]: 0%; pest or weed control at 15.625 g/ha [11]: 0%; pest or weed control at 62.5 g/ha [11]: 0%; pest or weed control at 250 g/ha [11]: 0%; pest or weed control at 15.625 g/ha [12]: 0%; pest or weed control at 62.5 g/ha [12]: 0%; pest or weed control at 250 g/ha [12]: 0%
